According to the supplement of paper PMC10307832:

Columns and labels:
Experiment in all cases: relative viability (nuclei count vs DMSO), 5 days (fraction); higher = more cells survive
VX-702 + Vorinostat = compound: NC(=O)c1ccc(N(C(N)=O)c2c(F)cccc2F)nc1-c1ccc(F)cc1F [VX-702] + O=C(CCCCCCC(=O)Nc1ccccc1)NO [Vorinostat] (partner 1 µM)
In short: (§1)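 Relative viability was taken as the ratio of nuclei in treated wells to nuclei in vehicle wells. Lung cancer cell lines in 1536-well plates received compounds by pin tool one day after seeding, either one drug alone or a fixed anchor-drug dose plus five library-drug doses (not always all listed) in √10 steps. Nuclei were counted on 4× images after 5 days of treatment, and values are medians of duplicate plates.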

Dabrafenib + Crizotinib = compound: CC(C)(C)c1nc(-c2cccc(NS(=O)(=O)c3c(F)cccc3F)c2F)c(-c2ccnc(N)n2)s1 [Dabrafenib] + C[C@@H](Oc1cc(-c2cnn(C3CCNCC3)c2)cnc1N)c1c(Cl)ccc(F)c1Cl [Crizotinib] (partner 1 µM)
In short: as §1

VX-702 + Bortezomib = compound: NC(=O)c1ccc(N(C(N)=O)c2c(F)cccc2F)nc1-c1ccc(F)cc1F [VX-702] + CC(C)C[C@H](NC(=O)[C@H](Cc1ccccc1)NC(=O)c1cnccn1)B(O)O [Bortezomib] (partner 0.002 µM)
In short: as §1

Dabrafenib + Palbociclib = compound: CC(C)(C)c1nc(-c2cccc(NS(=O)(=O)c3c(F)cccc3F)c2F)c(-c2ccnc(N)n2)s1 [Dabrafenib] + CC(=O)c1c(C)c2cnc(Nc3ccc(N4CCNCC4)cn3)nc2n(C2CCCC2)c1=O [Palbociclib] (partner 0.5 µM)
In short: as §1

Row | Cell Line | relative viability (VX-702 + Vorinostat; first compound 0.02 µM) | relative viability (VX-702 + Vorinostat; first compound 0.2 µM) | relative viability (VX-702 + Vorinostat; first compound 0.6325 µM) | relative viability (VX-702 + Vorinostat; first compound 2 µM) | relative viability (Dabrafenib + Crizotinib; first compound 0.003 µM) | relative viability (Dabrafenib + Crizotinib; first compound 0.009487 µM) | relative viability (Dabrafenib + Crizotinib; first compound 0.03 µM) | relative viability (Dabrafenib + Crizotinib; first compound 0.09487 µM) | relative viability (Dabrafenib + Crizotinib; first compound 0.3 µM) | relative viability (VX-702 + Bortezomib; first compound 0.02 µM) | relative viability (VX-702 + Bortezomib; first compound 0.2 µM) | relative viability (VX-702 + Bortezomib; first compound 0.6325 µM) | relative viability (VX-702 + Bortezomib; first compound 2 µM) | relative viability (Dabrafenib + Palbociclib; first compound 0.003 µM) | relative viability (Dabrafenib + Palbociclib; first compound 0.009487 µM) | relative viability (Dabrafenib + Palbociclib; first compound 0.03 µM) | relative viability (Dabrafenib + Palbociclib; first compound 0.09487 µM) | relative viability (Dabrafenib + Palbociclib; first compound 0.3 µM)
1 | NCI-H1975 | 0.752 | 0.719 | 0.701 | 0.786 | 0.967 | 0.968 | 0.881 | 0.938 | 0.87 | 0.367 | 0.281 | 0.353 | 0.391 | 0.437 | 0.581 | 0.553 | 0.456 | 0.384
2 | NCI-H1993 | 0.661 | 0.754 | 0.588 | 1.03 | 0.86 | 0.946 | 0.826 | 0.929 | 1.06 | 0.841 | 1.01 | 0.992 | 1.01 | 0.672 | 0.786 | 0.746 | 0.664 | 0.701
3 | NCI-H2009 | 0.791 | 0.847 | 0.907 | 1.03 | 0.973 | 1.01 | 1.02 | 0.697 | 0.662 | 1.29 | 1.15 | 1.22 | 1.3 | 0.153 | 0.22 | 0.179 | 0.149 | 0.128
4 | NCI-H2023 | 0.615 | 0.736 | 0.679 | 0.938 | 0.745 | 0.651 | 0.651 | 0.876 | 0.802 | 0.862 | 0.946 | 1.06 | 0.947 | 0.419 | 0.417 | 0.48 | 0.371 | 0.421
5 | NCI-H2085 | 0.861 | 0.802 | 0.855 | 0.848 | 0.97 | 0.881 | 0.838 | 0.919 | 0.873 | 1.08 | 1.06 | 1.03 | 1 | 0.455 | 0.463 | 0.501 | 0.471 | 0.456
6 | NCI-H2087 | 0.673 | 0.797 | 0.662 | 0.958 | 0.821 | 0.788 | 0.715 | 0.736 | 0.675 | 0.824 | 0.889 | 0.818 | 0.914 |  | 0.218 | 0.246 | 0.235 | 0.208
7 | NCI-H2126 | 0.76 | 0.741 | 0.754 | 0.632 | 1.01 | 1.02 | 0.986 | 1.01 | 1.01 | 1.11 | 1.06 | 1.11 | 1.25 | 0.294 | 0.333 | 0.373 | 0.359 | 0.382
8 | NCI-H2228 | 0.536 | 0.631 | 0.467 | 0.896 | 0.457 | 0.504 | 0.52 | 0.495 | 0.571 | 1.02 | 0.917 | 1.31 | 1.04 | 0.502 | 0.801 | 0.753 | 0.668 | 0.7
